Laboratory results reported in PubChem BioAssay (NCI).
Several values for one entry are separate records, joined by “and”; a condition that tells them apart may be missing. Equal entries are not always repeated.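 Interpolation was linear, between the two tested concentrations surrounding the appropriate level; five concentrations were tested over 48 hours in 96-well plates. GI50 is the concentration that inhibits growth by half. TGI: concentration producing complete growth inhibition.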

Assays:
Experiment in all cases: NCI-60 cell line screen, 48 h
LXFL 529 NSCLC = tested on: LXFL 529 NSCLC
CCRF-CEM leukemia = tested on: CCRF-CEM leukemia
HCT-15 colon = tested on: HCT-15 colon
DLD-1 colon = tested on: DLD-1 colon
A498 renal = tested on: A498 renal
SW-620 colon = tested on: SW-620 colon
COLO 205 colon = tested on: COLO 205 colon
HOP-18 NSCLC = tested on: HOP-18 NSCLC
SK-MEL-2 melanoma = tested on: SK-MEL-2 melanoma
SF-539 CNS = tested on: SF-539 CNS
SNB-19 CNS = tested on: SNB-19 CNS
OVCAR-8 ovarian = tested on: OVCAR-8 ovarian
NCI-H522 lung = tested on: NCI-H522 lung
M14 melanoma = tested on: M14 melanoma
NCI-H23 lung = tested on: NCI-H23 lung
RXF-631 renal = tested on: RXF-631 renal
OVCAR-3 ovarian = tested on: OVCAR-3 ovarian
DMS 273 small cell lung = tested on: DMS 273 small cell lung
CAKI-1 renal = tested on: CAKI-1 renal
DMS 114 small cell lung = tested on: DMS 114 small cell lung
SF-268 CNS = tested on: SF-268 CNS
NCI-H226 lung = tested on: NCI-H226 lung
KM20L2 colon = tested on: KM20L2 colon
HCT-116 colon = tested on: HCT-116 colon
SR leukemia = tested on: SR leukemia
SNB-75 CNS = tested on: SNB-75 CNS
MALME-3M melanoma = tested on: MALME-3M melanoma
KM12 colon = tested on: KM12 colon
786-0 renal = tested on: 786-0 renal
TK-10 renal = tested on: TK-10 renal
SF-295 CNS = tested on: SF-295 CNS
NCI-H460 lung = tested on: NCI-H460 lung
SK-MEL-28 melanoma = tested on: SK-MEL-28 melanoma
HOP-92 NSCLC = tested on: HOP-92 NSCLC
HOP-62 NSCLC = tested on: HOP-62 NSCLC
MOLT-4 leukemia = tested on: MOLT-4 leukemia
U251 CNS = tested on: U251 CNS
RXF 393 renal = tested on: RXF 393 renal
XF 498 CNS = tested on: XF 498 CNS
M19-MEL melanoma = tested on: M19-MEL melanoma
SK-MEL-5 melanoma = tested on: SK-MEL-5 melanoma
EKVX NSCLC = tested on: EKVX NSCLC
A549 NSCLC = tested on: A549 NSCLC
HCC-2998 colon = tested on: HCC-2998 colon
HT29 colon = tested on: HT29 colon
SNB-78 CNS = tested on: SNB-78 CNS
OVCAR-4 ovarian = tested on: OVCAR-4 ovarian
OVCAR-5 ovarian = tested on: OVCAR-5 ovarian
K-562 leukemia = tested on: K-562 leukemia
RPMI-8226 leukemia = tested on: RPMI-8226 leukemia
UACC-62 melanoma = tested on: UACC-62 melanoma
IGROV1 ovarian = tested on: IGROV1 ovarian
UO-31 renal = tested on: UO-31 renal
UACC-257 melanoma = tested on: UACC-257 melanoma
SK-OV-3 ovarian = tested on: SK-OV-3 ovarian
HL-60(TB) leukemia = tested on: HL-60(TB) leukemia
LOX IMVI melanoma = tested on: LOX IMVI melanoma
SN12C renal = tested on: SN12C renal
ACHN renal = tested on: ACHN renal

COc1cc2ccc3c4c(OC)cc(OC)c(OC)c4c(=O)n(C)c3c2cc1OC
GI50 (LXFL 529 NSCLC): 0.766 µM
TGI (LXFL 529 NSCLC): 2.86 µM and > 26.8 µM
GI50 (CCRF-CEM leukemia): 0.486 µM
TGI (CCRF-CEM leukemia): 2.04 µM
GI50 (HCT-15 colon): 1.87 µM
GI50 (DLD-1 colon): 1.8 µM
TGI (DLD-1 colon): 4.14 µM and > 33.5 µM
TGI (A498 renal): 16.7 µM
GI50 (SW-620 colon): 1.05 µM
TGI (SW-620 colon): 4.43 µM
GI50 (COLO 205 colon): 1.3 µM
TGI (COLO 205 colon): 4.09 µM and 9.95 µM
TGI (HOP-18 NSCLC): > 100 µM
GI50 (SK-MEL-2 melanoma): 3.29 µM
TGI (SK-MEL-2 melanoma): 16.7 µM and > 47.6 µM
GI50 (SF-539 CNS): 2.74 µM
TGI (SF-539 CNS): 10.5 µM and > 47.4 µM
TGI (SNB-19 CNS): > 51.7 µM
GI50 (OVCAR-8 ovarian): 0.451 µM
GI50 (NCI-H522 lung): 0.745 µM
TGI (NCI-H522 lung): 10.9 µM and > 32.8 µM
GI50 (M14 melanoma): 2.28 µM
TGI (M14 melanoma): 7.91 µM and > 33.9 µM
GI50 (NCI-H23 lung): 2.09 µM
TGI (NCI-H23 lung): 16.7 µM and > 46 µM
GI50 (RXF-631 renal): 0.495 µM
GI50 (OVCAR-3 ovarian): 0.755 µM
TGI (OVCAR-3 ovarian): 7.02 µM and > 40.5 µM
GI50 (DMS 273 small cell lung): 22.2 µM
GI50 (CAKI-1 renal): 6.83 µM
TGI (CAKI-1 renal): 16.7 µM and > 44.2 µM
GI50 (DMS 114 small cell lung): 1.87 µM
TGI (DMS 114 small cell lung): 16.7 µM and 26.6 µM
GI50 (SF-268 CNS): 1.13 µM
TGI (SF-268 CNS): 10.7 µM and > 21.2 µM
TGI (NCI-H226 lung): > 42 µM
GI50 (KM20L2 colon): 0.446 µM
GI50 (HCT-116 colon): 0.455 µM
TGI (SR leukemia): 2.97 µM
GI50 (SNB-75 CNS): 3.25 µM
TGI (SNB-75 CNS): 14.5 µM and > 42.5 µM
GI50 (MALME-3M melanoma): 13.4 µM
TGI (MALME-3M melanoma): 16.7 µM and > 49.6 µM
GI50 (KM12 colon): 0.548 µM
TGI (KM12 colon): 2.57 µM
GI50 (786-0 renal): 1.78 µM
GI50 (TK-10 renal): > 16.7 µM
TGI (TK-10 renal): > 54.6 µM
GI50 (SF-295 CNS): 0.809 µM
TGI (SF-295 CNS): 2.89 µM and > 22.4 µM
TGI (NCI-H460 lung): > 33.5 µM
GI50 (SK-MEL-28 melanoma): 8.01 µM
TGI (SK-MEL-28 melanoma): 16.7 µM and > 48.5 µM
GI50 (HOP-92 NSCLC): 1.55 µM
TGI (HOP-92 NSCLC): 16.7 µM and 40.4 µM
GI50 (HOP-62 NSCLC): 1.4 µM
TGI (HOP-62 NSCLC): 7.11 µM and > 43.5 µM
GI50 (MOLT-4 leukemia): 0.591 µM
TGI (MOLT-4 leukemia): 10.2 µM and 3.79 µM
GI50 (U251 CNS): 0.299 µM
TGI (U251 CNS): 3.71 µM and 10.6 µM
GI50 (RXF 393 renal): 3.44 µM
TGI (RXF 393 renal): 16.7 µM and > 44.7 µM
GI50 (XF 498 CNS): 5.27 µM
TGI (XF 498 CNS): 7.16 µM and 61.2 µM
GI50 (M19-MEL melanoma): 3.7 µM
TGI (M19-MEL melanoma): 16.7 µM and > 40.9 µM
GI50 (SK-MEL-5 melanoma): 4.11 µM
TGI (SK-MEL-5 melanoma): 16.7 µM and 35.1 µM
GI50 (EKVX NSCLC): 5.65 µM
TGI (EKVX NSCLC): 16.7 µM and > 48.7 µM
GI50 (A549 NSCLC): 1.18 µM
TGI (A549 NSCLC): 16.7 µM and > 35.8 µM
TGI (HCC-2998 colon): > 36.1 µM
GI50 (HT29 colon): 1.75 µM
TGI (HT29 colon): 4.77 µM
TGI (SNB-78 CNS): 32.5 µM
GI50 (OVCAR-4 ovarian): 2.67 µM
TGI (OVCAR-4 ovarian): 8.32 µM and > 45.8 µM
TGI (OVCAR-5 ovarian): 23.1 µM
GI50 (K-562 leukemia): 0.303 µM
GI50 (RPMI-8226 leukemia): 0.245 µM
TGI (RPMI-8226 leukemia): 2.15 µM and 1.65 µM
GI50 (UACC-62 melanoma): > 16.7 µM
TGI (UACC-62 melanoma): > 47.3 µM
TGI (IGROV1 ovarian): 16.7 µM and > 45.6 µM
TGI (UO-31 renal): > 48.9 µM
GI50 (UACC-257 melanoma): 3.09 µM
TGI (UACC-257 melanoma): 16.7 µM and > 49.2 µM
TGI (SK-OV-3 ovarian): > 47.8 µM
GI50 (HL-60(TB) leukemia): 0.351 µM
TGI (HL-60(TB) leukemia): 1.16 µM
GI50 (LOX IMVI melanoma): 1.53 µM
TGI (LOX IMVI melanoma): 3.8 µM
GI50 (SN12C renal): 0.532 µM
GI50 (ACHN renal): 4.88 µM
TGI (ACHN renal): 16.7 µM and > 44.7 µM
